The target in the experiment is actomyosin-7a (acto•M7a) (Homo sapiens, UniProt Q13402). Briefly: biochemical.

The structures appear in SMILES notation.

Chain of actomyosin-7a (acto•M7a) (Q13402 whole entry, looked up): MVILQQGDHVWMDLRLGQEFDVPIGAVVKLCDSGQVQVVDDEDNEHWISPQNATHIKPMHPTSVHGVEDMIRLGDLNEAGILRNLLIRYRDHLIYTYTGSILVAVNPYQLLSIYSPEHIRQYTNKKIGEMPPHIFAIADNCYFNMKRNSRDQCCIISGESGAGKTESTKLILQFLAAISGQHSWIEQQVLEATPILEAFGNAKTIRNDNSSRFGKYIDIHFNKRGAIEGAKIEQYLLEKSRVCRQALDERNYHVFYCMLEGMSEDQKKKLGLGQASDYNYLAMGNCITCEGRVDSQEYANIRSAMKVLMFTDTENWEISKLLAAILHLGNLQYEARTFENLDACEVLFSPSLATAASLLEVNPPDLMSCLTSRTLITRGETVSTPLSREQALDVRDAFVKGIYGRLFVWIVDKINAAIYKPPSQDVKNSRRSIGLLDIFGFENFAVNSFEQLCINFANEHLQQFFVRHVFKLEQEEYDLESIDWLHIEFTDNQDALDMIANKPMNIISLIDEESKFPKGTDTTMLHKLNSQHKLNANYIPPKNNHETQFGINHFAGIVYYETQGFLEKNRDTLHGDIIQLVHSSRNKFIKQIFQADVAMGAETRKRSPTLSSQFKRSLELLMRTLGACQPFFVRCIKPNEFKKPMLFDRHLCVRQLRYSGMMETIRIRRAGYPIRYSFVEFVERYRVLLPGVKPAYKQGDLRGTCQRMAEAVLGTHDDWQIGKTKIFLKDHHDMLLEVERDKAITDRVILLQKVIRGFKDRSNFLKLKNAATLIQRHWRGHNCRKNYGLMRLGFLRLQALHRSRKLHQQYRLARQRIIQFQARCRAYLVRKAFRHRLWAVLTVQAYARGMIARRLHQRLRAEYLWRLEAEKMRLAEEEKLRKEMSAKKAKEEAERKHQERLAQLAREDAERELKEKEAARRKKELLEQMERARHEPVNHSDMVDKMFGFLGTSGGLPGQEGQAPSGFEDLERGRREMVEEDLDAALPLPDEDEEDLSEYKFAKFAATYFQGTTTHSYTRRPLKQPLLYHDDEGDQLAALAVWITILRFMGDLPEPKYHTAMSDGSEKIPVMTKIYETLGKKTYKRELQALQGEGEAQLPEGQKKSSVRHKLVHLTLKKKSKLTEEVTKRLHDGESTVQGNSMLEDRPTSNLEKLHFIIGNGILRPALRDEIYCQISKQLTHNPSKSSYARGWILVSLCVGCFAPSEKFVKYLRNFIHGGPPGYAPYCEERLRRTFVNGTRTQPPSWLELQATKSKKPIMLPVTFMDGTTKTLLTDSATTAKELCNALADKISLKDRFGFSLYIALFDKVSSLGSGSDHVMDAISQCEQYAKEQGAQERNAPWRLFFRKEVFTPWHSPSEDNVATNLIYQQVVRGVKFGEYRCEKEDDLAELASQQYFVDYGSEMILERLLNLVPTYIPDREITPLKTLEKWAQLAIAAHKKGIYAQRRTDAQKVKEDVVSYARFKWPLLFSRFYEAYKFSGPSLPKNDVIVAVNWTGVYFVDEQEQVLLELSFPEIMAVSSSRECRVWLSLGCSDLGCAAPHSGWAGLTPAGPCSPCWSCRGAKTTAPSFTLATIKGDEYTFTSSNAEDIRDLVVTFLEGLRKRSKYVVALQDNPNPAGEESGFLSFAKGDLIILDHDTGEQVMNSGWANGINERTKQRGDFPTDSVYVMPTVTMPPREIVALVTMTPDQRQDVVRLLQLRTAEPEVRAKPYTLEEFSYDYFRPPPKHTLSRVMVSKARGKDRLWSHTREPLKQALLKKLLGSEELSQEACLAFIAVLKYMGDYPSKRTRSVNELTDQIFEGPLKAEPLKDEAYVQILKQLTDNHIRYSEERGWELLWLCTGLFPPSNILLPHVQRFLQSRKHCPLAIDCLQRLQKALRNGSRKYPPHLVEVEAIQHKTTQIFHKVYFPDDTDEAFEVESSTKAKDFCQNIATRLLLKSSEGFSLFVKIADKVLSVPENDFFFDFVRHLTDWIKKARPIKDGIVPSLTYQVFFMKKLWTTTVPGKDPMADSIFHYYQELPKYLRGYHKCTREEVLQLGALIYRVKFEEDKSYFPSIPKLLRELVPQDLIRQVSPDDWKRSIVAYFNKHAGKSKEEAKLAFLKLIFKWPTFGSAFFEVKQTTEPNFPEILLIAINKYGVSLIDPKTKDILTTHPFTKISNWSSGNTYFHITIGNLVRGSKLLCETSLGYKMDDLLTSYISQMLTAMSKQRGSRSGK

In turn, `Nc1ncnc2c1ncn2[C@@H]1O[C@H](COP(=O)(O)OP(=O)(O)OP(=O)(O)O)[C@@H](O)[C@H]1O` [ATP] came in with a Kd of 681.2 ± 5.63 µM.

For the origin of these results see article PMC3249170 (Cellular and Molecular Life Sciences: CMLS, 2011).
